Measurements reported in patent US20250235411A1, “COMPOSITIONS AND METHODS FOR DELIVERY OF AGENTS” (Kernal Biologics, Inc., priority 2021, published 2025).

Assays:
B6 albino mice = experiment: In vivo luciferase quantitation, Example 1 (IVIS, in vivo and ex vivo lung, liver, spleen); set-up: species or system mouse; settings: lipid added at 50 mol % to liver targeting LNPs
Method: Luciferase mRNA was formulated in LNPs containing a cationic ionizable lipid LIP001, cholesterol, DSPC, and PEG-DMG, in the presence or absence of the cationic lipid or cationic ionizable lipid pKa>7 according to the following molar ratios:
(§1) The ratio of the sum of ionizable amines and cationic quaternary ammonium ions to mRNA phosphates was 6. Lipids were dissolved in ethanol and mRNA was dissolved in 50 mM Citrate buffer pH 5.0. The organic and aqueous phases were combined at a flow rate of 12 mL/min on a Precision Nanosystems NanoAssemblr at a ratio of 3:1 (aqueous: organic). The product was immediately diluted to 16.5% ethanol using MilliQ water. The diluted product was dialyzed against a volume of 50 mM Tris pH 7.5 45 mM NaCl that was 200-fold in excess. The dialyzed product was concentrated using Amicon Ultra 100 kDa centrifuge tubes and sterile filtered. mRNA concentration and encapsulation was assessed by the Invitrogen Ribogreen assay.
(§2) LNPs were administered to B6 albino mice via the tail vein at a dose of 0.3 mg/kg. After six hours bioluminescence was measured using an IVIS Spectrum imager. Mice were treated with 150 mg/kg luciferin substrate administered via intraperitoneal injection. Immediately following the in vivo image mice were euthanized and the lung, liver and spleen were harvested for ex vivo imaging.

BALB/c mice = experiment: In vivo luciferase quantitation, Example 4 (cationic ionizable lipid pKa>7 LNPs); set-up: species or system mouse; settings: LIP021 LNPs with LIP001 or without lipid <7 pKa
Method: as §1, with “phosphates in the LNP” for “phosphates”, “300-fold” for “200-fold”
as §2, with “BALB/c” for “B6 albino”, “0.5” for “0.3”, “eighteen” for “six”

Compound | shift of distribution of luciferase expression to the lungs (B6 albino mice) [fold] | lung targeting, ex vivo bioluminescence (FIG. 10-11) (BALB/c mice)
CC(C)CCC[C@@H](C)[C@H]1CC[C@H]2[C@@H]3CC=C4C[C@@H](OC(=O)NCCN(C)C)CC[C@]4(C)[C@H]3CC[C@]12C.Cl [DC Cholesterol, DC- Cholesterol] | ~40 | 
CCCCC/C=C\C/C=C\CCCCCCCC(=O)OCC(COC(=O)CCC(OCCCCCCCC)OCCCCCCCC)COC(=O)NCCCN1CCC(O)CC1 (centres unmarked) [LIP021, 3-((4,4-bis(octyloxy)butanoyl)oxy)-2-((((3-(4-hydroxy-piperidin-1-yl)propyl)carbamoyl)oxy)methyl) propyl (9Z,12Z)-octadeca-9,12-dienoate] |  | does not exhibit a lung-targeting effect
